Source: publication PMC6297231 (Nature Communications, 2018)
Read-outs that look alike come from different tables or passages of the source. Where a SMILES comes first, the peptide text is derived from it. The star is where a group is joined. Biotin = O=C1N[C@H]2[C@H](CS[C@H]2CCCCC(=O)*)N1; Ahx = NCCCCCC(=O)O

Legend:
Bcl-w = target: T1, Bcl-w (Homo sapiens, UniProt Q92843); assay: TR-FRET binding assay; settings: binding to Bcl-w, used in Ki calculations; read-out: Peptide, Kd
T1 construct: N-Terminal 6His-tagged Bcl-w protein from Bcl-w (M1-R171); made in house; host or cells: E. coli
T1 sequence (Q92843 1-171): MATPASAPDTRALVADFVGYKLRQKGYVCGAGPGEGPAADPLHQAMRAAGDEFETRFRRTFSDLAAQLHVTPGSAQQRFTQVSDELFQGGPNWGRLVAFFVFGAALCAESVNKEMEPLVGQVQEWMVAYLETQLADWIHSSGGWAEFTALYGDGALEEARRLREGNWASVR
Description: (§1) N-terminal GST-tagged-Mcl-1 protein from Mcl-1 (E171-G327), N-terminal GST-tagged Bcl-xL protein from Bcl-xL (1-209), N-Terminal 6His-tagged Bfl-1 protein from Bfl-1 (M1-K151), N-Terminal 6His-tagged Bcl-w protein from Bcl-w (M1-R171), and C-Terminal 6His-tagged Bcl-2 protein from Bcl-2 (M1-F212) were expressed as a tagged fusion protein in E. coli and subsequently purified via Glutathione Sepharose-affinity or Ni-NTA resin purification, and size-exclusion chromatography.
(§2) For TR-FRET, tagged fusion proteins were incubated with a Europium-labeled antibody and a HyLite Fluor 647-labeled peptide, or a biotin-labeled peptide with a streptavidin-labeled ulight fluorophore allowing the assembly of donor and acceptor dye pairs for use in protein-binding assays.
(§3) The reaction final concentrations for Mcl-1 were 1.5 nM GST-Mcl-1, 0.5 nM LanthaScreen Eu tagged GST antibody (LifeTechnologies cat#PV5594), and 4 nM HyLite Fluor 647-labeled Bim peptide C (Hilyte647 C2 Maleimide)-[…]; for Bcl-xl were 2 nM GST-Bcl-xl, 2 nM LanthaScreen Eu-tagged GST antibody, and 10 nM HyLite Fluor 647-labeled BAK peptide C(Hilyte647 C2 Maleimide)-[…]; for Bfl-1 were 4 nM His-Bfl-1, 0.5 nM LanthaScreen Eu-tagged HIS antibody (PerkinElmer cat#AD0205), and 10 nM HyLite Fluor 647-labeled BIM peptide C(Hilyte647-C2-Maleimide)-[…]; for Bcl-2 and Bcl-w: 2 nM His-Bcl-2, or 2 nM His-Bcl-w, with 0.5 nM LanthaScreen Eu-tagged HIS antibody, 10 nM biotin-labeled Bim peptide (Biotin-lc-[…]), and 2.4 nM a streptavidin labeled ULight Fluorophore (PerkinElmer cat#TRF0102-D). Reactions were incubated at 24 °C for 120–180 min before reading on a Tecan (InfiniteM1000 spectrofluorometer) with excitation at 340 nm and emission at […] and 665 nm. Ratio of fluorescent emission intensity at 665–620 nm was calculated for each reaction (equation 1). Percent inhibition was calculated based upon min (control compound) vs. max (DMSO) according to Eq. (2) and the IC50 was derived the smart fit curve (Genedata screener) of % inhibition vs. concentration. Ki values were calculated from Eq. […]

Bcl-2 = target: T2, Bcl-2 (Homo sapiens, UniProt P10415); assay: TR-FRET binding assay; settings: binding to Bcl-2, used in Ki calculations; read-out: Peptide, Kd
T2 construct: C-Terminal 6His-tagged Bcl-2 protein from Bcl-2 (M1-F212); made in house; host or cells: E. coli
Description: as §1, §2, §3

H23 = assay: Caspase-3/7 activation assay; format: cell-based; settings: for EC50: caspase activation, Mcl-1-dependent cell line, read-out: NCI-H23, EC50; for NCI-H23 caspase pEC50: mean of log transformed data
Method: (§4) Cells were plated at 3000 cells/well in 384-well white plates in corresponding cell growth media. […] Caspase-3/7 activation was subsequently determined using a Caspase-Glo 3/7 Reagent (Promega) and viability was assayed using the CellTiter-Glo Reagent (Promega) as described in manufacturer’s instructions. Dose–response curves for caspase-3/7 activation and viability were plotted and analyzed (including EC50 and GI50 determination) using GraphPad Prism.

MOLP8 = assay: Caspase-3/7 activation assay; format: cell-based
Method: as §4

MV411 = assay: Caspase-3/7 activation assay; format: cell-based
Method: as §4

Mcl-1 [1] = target: T3, Mcl-1 (Homo sapiens, UniProt Q07820); assay: SPR direct binding assay; parameters: 6His-tagged Mcl-1 protein (E171-G327) was immobilized using NTA capture-coupling
Method: A Biacore T200 instrument (GE Healthcare) was used to monitor binding interactions using a direct binding assay format. 6His-tagged Mcl-1 protein (E171-G327) was immobilized using NTA capture-coupling at a flow rate of 10 μL min^-1 and using an immobilization running buffer containing 10 mM HEPES, 300 mM NaCl, 1 mM TCEP, and 0.05% Tween-20 at 25 °C. […] Approximately 300 response units of Mcl-1 protein (2 μg mL^-1 in immobilization running buffer) were immobilized using the ‘aim for’ function in the T200 Control Software (GE Healthcare). Remaining reactive esters were blocked using a 7 min injection of 1 M ethanolamine. Reference flow cells were prepared without protein. All binding measurements were performed in 10 mM Tris, pH 7.5, 300 mM NaCl, 1 mM TCEP, 1% DMSO, and 0.02% Tween-20 at 25 °C at a flow rate of 30 μL min^-1. Buffer was primed through the instrument overnight to stabilize the surface before subsequent assay steps. Prior to kinetic analysis, solvent calibration and double referencing subtractions were made to eliminate bulk refractive index changes, injection noise, and data drift. Affinity and binding kinetic parameters were determined by global fitting to a 1:1-binding model within the Biacore T200 Evaluation Software (GE Healthcare).

Mcl-1 [2] = target: T3, Mcl-1; assay: TR-FRET binding assay; parameters: N-terminal GST-tagged-Mcl-1 protein from Mcl-1 (E171-G327); made in house; host or cells: E. coli
Method: Percent inhibition was calculated based upon min (control compound) vs. max (DMSO) according to Eq. (2) and the IC50 was derived the smart fit curve (Genedata screener) of % inhibition vs. concentration. Ki values were calculated from Eq.

KG1 = assay: Caspase-3/7 activation assay; format: cell-based; settings: Homo sapiens, KG-1, 6 h, read-out: 6h caspase EC50; KG1, single agent
Method: as §4

NB4 = assay: Caspase-3/7 activation assay; format: cell-based; settings: Homo sapiens, NB-4, 6 h, read-out: 6h caspase EC50; NB4, single agent
Method: as §4

MOLM-13 leukemic cells = assay: MOLM-13 disseminated AML model; format: in vivo, mice; settings: venetoclax 100 mg kg^−1 p.o. daily, AZD5991 60 mg kg^−1 i.v. weekly, after 10 days
Description: MOLM-13: These studies complied with all relevant ethical regulations described in the guidelines established by GV-SOLAS Institutional Animal Care and Use Committee. Female CIEA-NOG mice were purchased from Taconic. Mice between 5 and 8 weeks old were tail vein injected with five million MOLM-13 cells. Treatment started 3 days after implantation. AZD5991, venetoclax, and vehicle were formulated and administered as mentioned above. Bone marrow and peripheral blood were collected 10 days post-treatment initiation, followed by red cell lysis (ACK lysis buffer), washes with FC buffer (PBS + 2% FCS) and cell staining with AquaZombie live/dead stain (cat#423102, Biolegend) containing antibodies against human CD45 (cat#564105, BDBiosciences) and human HLA-ABC (cat#561346, BDBiosciences) or isotype controls (mIgG1 cat#552834, BDBiosciences; mIgG1 cat#561504, BDBiosciences). Samples were washed with FC buffer and data acquired on an Attune NXT cytometer and analyzed using FlowJo software. Gating was performed on single/live/FCS vs. SSC/HLA-ABC vs. hCD45 double positive cells (Supplementary Figure 8).

OCIM1 = assay: Caspase-3/7 activation assay; format: cell-based; settings: OCI-M1, 6 h, read-out: 6h caspase EC50; OCIM1, single agent
Method: as §4

HEL92.1.7 = assay: Caspase-3/7 activation assay; format: cell-based; settings: Homo sapiens, HEL 92.1.7, 6 h, read-out: 6h caspase EC50; HEL9217, single agent
Method: as §4

ME1 = assay: Caspase-3/7 activation assay; format: cell-based; settings: ME-1, 6 h, read-out: 6h caspase EC50; ME1, single agent
Method: as §4

OCIAML5 = assay: Caspase-3/7 activation assay; format: cell-based; settings: Homo sapiens, OCI-AML-5, 6 h, read-out: 6h caspase EC50; OCIAML5, single agent
Method: as §4

OCIAML3 = assay: Caspase-3/7 activation assay; format: cell-based; settings: Homo sapiens, OCI-AML-3, 6 h, read-out: 6h caspase EC50; OCIAML3, single agent
Method: as §4

Nomo1 = assay: Caspase-3/7 activation assay; format: cell-based; settings: Homo sapiens, NOMO-1, 6 h, read-out: 6h caspase EC50; NOMO1, single agent
Method: as §4

CMK = assay: Caspase-3/7 activation assay; format: cell-based; settings: Homo sapiens, 6 h, read-out: 6h caspase EC50; CMK, single agent
Method: as §4

MOLM13 = assay: Caspase-3/7 activation assay; format: cell-based; settings: Homo sapiens, MOLM-13, 6 h, read-out: 6h caspase EC50; MOLM13, single agent
Method: as §4

[3] = caspase activation, Mcl-1-dependent cell line, read-out: MOLP-8, EC50
[4] = caspase activation, Mcl-1-dependent cell line, read-out: MV4-11, EC50

T3 sequence (Q07820 171-327): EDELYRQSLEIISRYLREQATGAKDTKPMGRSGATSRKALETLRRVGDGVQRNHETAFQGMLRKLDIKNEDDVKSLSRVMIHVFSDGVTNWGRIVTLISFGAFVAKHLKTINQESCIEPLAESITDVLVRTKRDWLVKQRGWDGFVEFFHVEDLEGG
T2 sequence (P10415 1-212): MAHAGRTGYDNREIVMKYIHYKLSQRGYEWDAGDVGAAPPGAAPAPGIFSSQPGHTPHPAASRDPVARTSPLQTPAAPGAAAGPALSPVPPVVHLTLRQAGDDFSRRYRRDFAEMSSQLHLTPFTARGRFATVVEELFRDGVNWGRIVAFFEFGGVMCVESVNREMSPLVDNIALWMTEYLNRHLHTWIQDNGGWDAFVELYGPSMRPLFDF

Row | SMILES | EC50 (H23) [nM] | NCI-H23 caspase pEC50 (H23) | EC50 (MOLP8; [3]) [nM] | MOLP-8 caspase pEC50 (MOLP8; mean of log transformed data) | EC50 (MV411; [4]) [nM] | MV4-11 caspase pEC50 (MV411; mean of log transformed data) | Kd (Mcl-1 [1]; read-out: Mcl-1 SPR, Kd) [nM] | IC50 (Mcl-1 [2]; read-out: Mcl-1 FRET, IC50) [nM] | also measured
1 | CC[C@H](C)[C@H](NC(=O)[C@H](CCCNC(=N)N)NC(=O)[C@H](CCCNC(=N)N)NC(=O)[C@H](CC(C)C)NC(=O)[C@H](CCC(=O)O)NC(=O)[C@H](CC(N)=O)NC(=O)[C@H](C)NC(=O)[C@@H](NC(=O)[C@H](Cc1c[nH]c2ccccc12)NC(=O)[C@@H](NC(=O)[C@H](CCC(=O)O)NC(=O)[C@@H]1CCCN1C(=O)[C@H](CCCNC(=N)N)NC(=O)[C@H](CCSC)NC(=O)CNC(=O)CNC(=O)CCCCCNC(=O)CCCC[C@@H]1SC[C@@H]2NC(=O)N[C@@H]21)[C@@H](C)CC)[C@@H](C)CC)C(=O)NCC(=O)N[C@@H](CC(=O)O)C(=O)N[C@@H](CCC(=O)O)C(=O)N[C@@H](Cc1ccccc1)C(=O)N[C@@H](CC(N)=O)C(=O)N[C@@H](C)C(=O)O [Biotin Bim peptide(biotin-Ic-), reference compound] ({Biotin-Ahx}-GGMRPEIWIANELRRIGDEFNA-OH) | – | – | – | – | – | – | – | – | Kd (Bcl-w): 10 nM; Kd (Bcl-2): 5 nM
2 | Cc1c2c(nn1C)CSCc1cc(n(C)n1)CSc1cc(c3ccccc3c1)OCCCc1c(C(=O)O)n(C)c3c-2c(Cl)ccc13 (atropisomer, axis not shown; (Sa)) [(Sa)-7] | > 25000 | < 4.6 | > 16000 | < 4.8 | > 16000 | < 4.8 | – | – | –
3 | Cc1c2c(nn1C)CSCc1cc(n(C)n1)CSc1cc(c3ccccc3c1)OCCCc1c(C(=O)O)[nH]c3c-2cccc13 [Compound 5] | – | – | – | – | – | – | 47 | 19 | EC50 (MOLP8; Homo sapiens, MOLP-8, caspase activation, Mcl-1-dependent cell line, read-out: MOLP-8, EC50): > 31500 nM; EC50 (MOLP8; Homo sapiens, MOLP-8, mean of log transformed data, read-out: MOLP-8 caspase pEC50 (converted)): > 31600 nM; Kd (Mcl-1 [1]; mean of log transformed data, read-out: MCL1 SPR pKd (converted)): 46.8 nM; IC50 (Mcl-1 [2]; mean of log transformed data, read-out: MCL1 FRET pIC50 (converted)): 19.1 nM; EC50 (MV411; Homo sapiens, MV4-11, caspase activation, Mcl-1-dependent cell line, read-out: MV4-11, EC50): > 31500 nM; EC50 (MV411; Homo sapiens, MV4-11, mean of log transformed data, read-out: MV4-11 caspase pEC50 (converted)): > 31600 nM
4 | Cc1c2c(nn1C)CSCc1cc(n(C)n1)CSc1cc(c3ccccc3c1)OCCCc1c(C(=O)O)n(C)c3c-2cccc13 [Compound 6] | 5750 | 5.24 | 660 | 6.18 | 1050 | 5.98 | 8 | 4 | MCL1 SPR pKd (Mcl-1 [1]; mean of log transformed data): 8.10; MCL1 FRET pIC50 (Mcl-1 [2]; mean of log transformed data): 8.37
5 | Cc1nn(C)c(COc2ccc(N3CCN(S(=O)(=O)N(C)C)CC3)cc2)c1-c1cccc2c(CCCOc3cccc4ccccc34)c(C(=O)O)n(CCN3CCOCC3)c12 [Compound 8, A-1210477, reference compound] | 20900 | 4.68 | 3550 | 5.45 | 1860 | 5.73 | 11 | 6 | MCL1 SPR pKd (Mcl-1 [1]; mean of log transformed data): 7.94; MCL1 FRET pIC50 (Mcl-1 [2]; mean of log transformed data): 8.20
6 | Cc1c(-c2cccc3c(CCCOc4cccc5ccccc45)c(C(=O)O)[nH]c23)c(CSCc2nn(C)c(C)c2-c2cccc3c(CCCOc4cccc5ccccc45)c(C(=O)O)[nH]c23)nn1C [Compound 3] | – | – | – | – | – | – | – | 770 | –
7 | Cc1ccccc1-c1cccc2c(CCCOc3cccc4c3CCCC4)c(C(=O)O)[nH]c12 [Compound 1, reference compound] | – | – | – | – | – | – | – | 1100 | –
8 | CC1(C)CCC(CN2CCN(c3ccc(C(=O)NS(=O)(=O)c4ccc(NCC5CCOCC5)c([N+](=O)[O-])c4)c(Oc4cnc5[nH]ccc5c4)c3)CC2)=C(c2ccc(Cl)cc2)C1 [venetoclax, reference compound] | – | – | – | – | – | – | – | – | EC50 (KG1): 269 nM; EC50 (NB4): 27.5 nM; percentage of HLA-ABC+ hCD45+ leukemic cells in peripheral blood vs. vehicle (MOLM-13 leukemic cells): significantly reduced; EC50 (OCIM1): > 333 nM; EC50 (HEL92.1.7): > 333 nM; EC50 (ME1): 10.2 nM; EC50 (OCIAML5): 73 nM; EC50 (OCIAML3): > 333 nM; EC50 (Nomo1): > 333 nM; EC50 (MV411; Homo sapiens, MV4-11, 6 h, read-out: 6h caspase EC50, MV411, single agent): 45.2 nM; EC50 (CMK): > 333 nM; EC50 (MOLM13): 9.66 nM
